Assay results as given in patent publication US20090018111A1, “Novel Antimicrobial Medicament” (priority 2004, published 2009).
Read-outs that look alike come from different tables or passages of the source.

Key:
Test in all cases: Sensitivity test (agar dilution)
E. faecalis ATCC19433 = assay type: cell-based, Enterococcus faecalis; conditions: Enterococcus faecalis
Outline: (§1)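 Water-dissolved compounds, alone or mixed, were incorporated into Mueller Hinton agar at twofold serial concentrations. Spot inoculation used about 5 μl of about 10^6 CFU/ml suspension.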

P. vurgalis OX-19 = assay type: cell-based, Proteus vulgaris; conditions: Proteus vulgaris
Outline: as §1

P. vulgaris GN7919 = assay type: cell-based, Proteus vulgaris; conditions: Proteus vulgaris
Outline: as §1

Str. pyogenes Cook = assay type: cell-based, Streptococcus pyogenes; conditions: Streptococcus pyogenes
Outline: as §1

S. aureus 209P = assay type: cell-based, Staphylococcus aureus; conditions: Staphylococcus aureus, 209P
Outline: as §1

[1] = tested on: S. aureus MS94088 (hetero-MRSA); assay type: cell-based, Staphylococcus aureus; conditions: Staphylococcus aureus, MRSA
Outline: as §1

B. subtilis ATCC6633 = assay type: cell-based, Bacillus subtilis; conditions: Bacillus subtilis
Outline: as §1

E. coli ML1410 = assay type: cell-based, Escherichia coli; conditions: Escherichia coli
Outline: as §1

E. coli NIHJ JC-2 = assay type: cell-based, Escherichia coli; conditions: Escherichia coli
Outline: as §1

E. aerogenes ATCC13048 = assay type: cell-based, Enterobacter aerogenes; conditions: Klebsiella aerogenes
Outline: as §1

P. aeruginosa TL-2666 = assay type: cell-based, Pseudomonas aeruginosa; conditions: Pseudomonas aeruginosa
Outline: as §1

P. aeruginosa TL-2667 = assay type: cell-based, Pseudomonas aeruginosa; conditions: Pseudomonas aeruginosa
Outline: as §1

P. aeruginosa IFO3451 = assay type: cell-based, Pseudomonas aeruginosa; conditions: Pseudomonas aeruginosa
Outline: as §1

[2] = Concomitant (MEPM:SM = 1:1), read-out: MIC
[3] = Concomitant (MEPM:SM = 1:2), read-out: MIC
[4] = Concomitant (MEPM:SM = 1:4), read-out: MIC
[5] = Concomitant drug (MEPM:SM = 2:1), read-out: MIC

Measured: MIC

CCN1CCN(C(=O)N[C@@H](C(=O)N[C@@H]2C(=O)N3[C@@H]2SC(C)(C)[C@@H]3C(=O)O)c2ccccc2)C(=O)C1=O [PIPC, piperacillin]
0.5 µg/mL: E. faecalis ATCC19433; ATCC19433, Concomitant (PIPC:SM = 1:1), E. faecalis ATCC19433, read-out: MIC concomitant | P. vulgaris GN7919; GN7919, Concomitant (PIPC:SM = 1:1), P. vulgaris GN7919, read-out: MIC concomitant
0.125 µg/mL: [1]; Concomitant (PIPC:SM = 1:1), S. aureus MS94088 (hetero-MRSA), read-out: MIC concomitant | B. subtilis ATCC6633; ATCC6633, drug alone, B. subtilis ATCC6633, read-out: MIC alone | E. coli ML1410; ML1410, Concomitant (PIPC:SM = 1:1), E. coli ML1410, read-out: MIC concomitant
1 µg/mL: P. aeruginosa TL-2666; TL2666, drug alone, P. aeruginosa TL-2666, read-out: MIC alone
> 32 µg/mL: P. vulgaris GN7919; GN7919, drug alone, P. vulgaris GN7919, read-out: MIC alone | [1]; drug alone, S. aureus MS94088 (hetero-MRSA), read-out: MIC alone
≤ 0.002 µg/mL: Str. pyogenes Cook; Concomitant (PIPC:SM = 1:1), Str. pyogenes Cook, read-out: MIC concomitant | B. subtilis ATCC6633; ATCC6633, Concomitant (PIPC:SM = 1:1), B. subtilis ATCC6633, read-out: MIC concomitant
0.031 µg/mL: Str. pyogenes Cook; drug alone, Str. pyogenes Cook, read-out: MIC alone
2 µg/mL: E. faecalis ATCC19433; ATCC19433, drug alone, E. faecalis ATCC19433, read-out: MIC alone | E. coli ML1410; ML1410, drug alone, E. coli ML1410, read-out: MIC alone | P. aeruginosa TL-2667; TL2667, drug alone, P. aeruginosa TL-2667, read-out: MIC alone
8 µg/mL: E. aerogenes ATCC13048; ATCC13048, Concomitant (PIPC:SM = 1:1), E. aerogenes ATCC13048, read-out: MIC concomitant | P. aeruginosa IFO3451; IFO3451, Concomitant (PIPC:SM = 1:1), P. aeruginosa IFO3451, read-out: MIC concomitant
0.063 µg/mL: E. coli NIHJ JC-2; NIHJJC2, Concomitant (PIPC:SM = 1:1), E. coli NIHJ JC-2, read-out: MIC concomitant
0.004 µg/mL: S. aureus 209P; Concomitant (PIPC:SM = 1:1), S. aureus 209P, read-out: MIC concomitant
16 µg/mL: P. aeruginosa TL-2666; TL2666, Concomitant (PIPC:SM = 1:1), P. aeruginosa TL-2666, read-out: MIC concomitant | P. aeruginosa TL-2667; TL2667, Concomitant (PIPC:SM = 1:1), P. aeruginosa TL-2667, read-out: MIC concomitant
0.25 µg/mL: S. aureus 209P; drug alone, S. aureus 209P, read-out: MIC alone | E. coli NIHJ JC-2; NIHJJC2, drug alone, E. coli NIHJ JC-2, read-out: MIC alone
0.008 µg/mL: P. vurgalis OX-19; OX19, read-out: MIC alone, drug alone, P. vurgalis OX-19 | P. vurgalis OX-19; OX19, read-out: MIC concomitant, Concomitant (PIPC:SM = 1:1), P. vurgalis OX-19
4 µg/mL: E. aerogenes ATCC13048; ATCC13048, drug alone, E. aerogenes ATCC13048, read-out: MIC alone | P. aeruginosa IFO3451; IFO3451, drug alone, P. aeruginosa IFO3451, read-out: MIC alone

C[C@@H](O)[C@H]1C(=O)N2C(C(=O)O)=C(S[C@@H]3CN[C@H](C(=O)N(C)C)C3)[C@H](C)[C@H]12 [MEPM, meropenem]
0.125 µg/mL: [1]
≤ 0.016 µg/mL: P. vurgalis OX-19; OX19, Concomitant (MEPM:SM = 1:1), read-out: MIC | P. vurgalis OX-19; OX19, Concomitant (MEPM:SM = 1:2), read-out: MIC | P. vurgalis OX-19; OX19, Concomitant (MEPM:SM = 1:4), read-out: MIC | Str. pyogenes Cook; [2] | Str. pyogenes Cook; [3] | Str. pyogenes Cook; [4] | Str. pyogenes Cook; [5] | Str. pyogenes Cook; alone, read-out: MIC | S. aureus 209P; [2] | S. aureus 209P; [3] | S. aureus 209P; [4] | S. aureus 209P; [5] | B. subtilis ATCC6633; ATCC6633, Concomitant (MEPM:SM = 1:1), read-out: MIC | B. subtilis ATCC6633; ATCC6633, Concomitant (MEPM:SM = 1:2), read-out: MIC | B. subtilis ATCC6633; ATCC6633, Concomitant (MEPM:SM = 1:4), read-out: MIC | B. subtilis ATCC6633; ATCC6633, Concomitant drug (MEPM:SM = 2:1), read-out: MIC | E. coli ML1410; ML1410, Concomitant (MEPM:SM = 1:1), read-out: MIC | E. coli ML1410; ML1410, Concomitant (MEPM:SM = 1:2), read-out: MIC | E. coli ML1410; ML1410, Concomitant (MEPM:SM = 1:4), read-out: MIC | E. coli ML1410; ML1410, Concomitant drug (MEPM:SM = 2:1), read-out: MIC | E. coli NIHJ JC-2; NIHJJC2, Concomitant (MEPM:SM = 1:1), read-out: MIC | E. coli NIHJ JC-2; NIHJJC2, Concomitant (MEPM:SM = 1:2), read-out: MIC | E. coli NIHJ JC-2; NIHJJC2, Concomitant (MEPM:SM = 1:4), read-out: MIC | E. coli NIHJ JC-2; NIHJJC2, Concomitant drug (MEPM:SM = 2:1), read-out: MIC | E. coli NIHJ JC-2; NIHJJC2, alone, read-out: MIC | E. aerogenes ATCC13048; ATCC13048, Concomitant (MEPM:SM = 1:1), read-out: MIC
0.063 µg/mL: P. vurgalis OX-19; OX19, alone, read-out: MIC | P. vulgaris GN7919; GN7919, alone, read-out: MIC | S. aureus 209P; alone, read-out: MIC | [1]; [4] | B. subtilis ATCC6633; ATCC6633, alone, read-out: MIC | E. aerogenes ATCC13048; ATCC13048, alone, read-out: MIC
0.031 µg/mL: P. vurgalis OX-19; OX19, Concomitant drug (MEPM:SM = 2:1), read-out: MIC | P. vulgaris GN7919; GN7919, Concomitant (MEPM:SM = 1:1), read-out: MIC | P. vulgaris GN7919; GN7919, Concomitant (MEPM:SM = 1:2), read-out: MIC | P. vulgaris GN7919; GN7919, Concomitant (MEPM:SM = 1:4), read-out: MIC | P. vulgaris GN7919; GN7919, Concomitant drug (MEPM:SM = 2:1), read-out: MIC | E. coli ML1410; ML1410, alone, read-out: MIC | E. aerogenes ATCC13048; ATCC13048, Concomitant (MEPM:SM = 1:2), read-out: MIC | E. aerogenes ATCC13048; ATCC13048, Concomitant (MEPM:SM = 1:4), read-out: MIC | E. aerogenes ATCC13048; ATCC13048, Concomitant drug (MEPM:SM = 2:1), read-out: MIC
2 µg/mL: P. aeruginosa TL-2667; TL2667, Concomitant (MEPM:SM = 1:2), read-out: MIC | P. aeruginosa TL-2667; TL2667, Concomitant (MEPM:SM = 1:4), read-out: MIC
0.5 µg/mL: E. faecalis ATCC19433; ATCC19433, Concomitant (MEPM:SM = 1:2), read-out: MIC | [1]; [5] | P. aeruginosa IFO3451; IFO3451, Concomitant (MEPM:SM = 1:1), read-out: MIC | P. aeruginosa IFO3451; IFO3451, Concomitant (MEPM:SM = 1:2), read-out: MIC | P. aeruginosa IFO3451; IFO3451, Concomitant (MEPM:SM = 1:4), read-out: MIC | P. aeruginosa IFO3451; IFO3451, Concomitant drug (MEPM:SM = 2:1), read-out: MIC | P. aeruginosa IFO3451; IFO3451, alone, read-out: MIC
1 µg/mL: E. faecalis ATCC19433; ATCC19433, Concomitant (MEPM:SM = 1:1), read-out: MIC | E. faecalis ATCC19433; ATCC19433, Concomitant drug (MEPM:SM = 2:1), read-out: MIC | P. aeruginosa TL-2666; TL2666, Concomitant (MEPM:SM = 1:1), read-out: MIC | P. aeruginosa TL-2666; TL2666, Concomitant (MEPM:SM = 1:2), read-out: MIC | P. aeruginosa TL-2666; TL2666, Concomitant (MEPM:SM = 1:4), read-out: MIC | P. aeruginosa TL-2666; TL2666, Concomitant drug (MEPM:SM = 2:1), read-out: MIC | P. aeruginosa TL-2666; TL2666, alone, read-out: MIC
4 µg/mL: E. faecalis ATCC19433; ATCC19433, alone, read-out: MIC | [1]; alone, read-out: MIC | P. aeruginosa TL-2667; TL2667, Concomitant (MEPM:SM = 1:1), read-out: MIC | P. aeruginosa TL-2667; TL2667, Concomitant drug (MEPM:SM = 2:1), read-out: MIC | P. aeruginosa TL-2667; TL2667, alone, read-out: MIC
0.25 µg/mL: E. faecalis ATCC19433; ATCC19433, Concomitant (MEPM:SM = 1:4), read-out: MIC | [1]; [2]
